Data: US9974301B2, “Fungicidal composition for controlling phytopathogenic diseases, comprising a mixture of the volatile compounds ethanol, 3-methylbutanol, isobutyl acetate, isoamyl acetate and alpha-bisabolol; and the use thereof for inhibiting the growth of the pathogenic fungus botrytis cinerea” (UNIVERSIDAD DE LA FRONTERA, priority 2013, dated 2018)

tested on: Botrytis cinerea; test: Inhibition of growth of Botrytis cinerea by artificial VOC mixture and pure compounds, bi compartmentalized Petri dishes (vapour exposure); assay type: cell-based; conditions: pure compounds at their relative proportion of 0.70 μl/mL mixture (ethanol 0.11, isobutyl acetate 0.14, isoamyl acetate 0.13, α-bisabolol 0.10 μl/mL head space); after four days
Protocol: For this, bi compartmentalized Petri dishes (94×16 mm) (Greiner, Germany) coated with culture medium were used, leaving a head space of 60 mL. One compartment was inoculated with mycelium (3 mm radius disk) of the saprophytic fungus (S. commune). The other compartment was inoculated with fresh mycelium of B. cinerea. In this bioassay there was no physical contact between the two fungi. The control treatment consisted of placing the mycelium of B. cinerea in only one of the compartments. All experimental units (Petri dishes) were covered and sealed with Parafilm M®, and incubated at 25° C. in the dark until the growth of any fungi (treatment and control) reached the edge of the central wall of the Petri dish. The mycelial growth was measured using a magnifying glass (Japan Optical), and data were expressed as percent of inhibition relative to control. Each treatment was repeated 10 times.
The inhibitory power of pure compounds and of a mixture based on their percent ratio were assessed. The methodology was similar to that detailed above to assess the antifungal activity of saprophytic fungus. The minimum inhibitory concentration (MIC) and lethal dose 50% (LD50) were calculated by interpolation according to the polynomial equation (Y=−194.565812×2+318.001954×−25.561441; r2=0.982) (See FIG. 2).
6 formulations were tested at laboratory level: […]
Formulation 2: 0.11 μl ethanol per 1 mL of head space volume (airspace).
Formulation 3: 0.14 μl of isobutyl acetate per 1 mL of head space volume (airspace).
Formulation 4: 0.13 μl of isoamyl acetate per 1 mL of head space volume (airspace).
Formulation 5: 0.10 μl of α-bisabolol per 1 mL of head space volume (airspace).
The effect of each formulation for inhibiting the growth of B. cinerea was tested using bi compartmentalized dishes, according to the above methodology.

| Molecule | percent of inhibition of Botrytis cinerea growth |
| --- | --- |
| CC(=O)OCC(C)C [isobutyl acetate] | 47% |
| CC(=O)OCCC(C)C [isoamyl acetate] | 77% |
| α-bisabolol | did not inhibit |
